PubChem BioAssay (NCI)
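Method: 48-hour compound exposure of cells in 96-well plates, five concentrations, linear interpolation of endpoints. Definition used: TGI = concentration required for complete inhibition of growth.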

How the values were obtained:
Assay in all cases: growth of human tumour cells (NCI), 48 h
SR leukemia = system: SR leukemia
HS 578T breast = system: HS 578T breast
NCI-H23 lung = system: NCI-H23 lung
SW-620 colon = system: SW-620 colon
BT-549 breast = system: BT-549 breast
MDA-MB-435 = system: MDA-MB-435
NCI/ADR-RES ovarian = system: NCI/ADR-RES ovarian
ACHN renal = system: ACHN renal
SF-539 CNS = system: SF-539 CNS
LOX IMVI melanoma = system: LOX IMVI melanoma
NCI-H460 lung = system: NCI-H460 lung
SNB-19 CNS = system: SNB-19 CNS
PC-3 prostate = system: PC-3 prostate
NCI-H522 lung = system: NCI-H522 lung
SNB-75 CNS = system: SNB-75 CNS
SK-MEL-5 melanoma = system: SK-MEL-5 melanoma
A549 NSCLC = system: A549 NSCLC
RXF 393 renal = system: RXF 393 renal
T-47D breast = system: T-47D breast

Compound	TGI (SR leukemia) [µM]	TGI (HS 578T breast) [µM]	TGI (NCI-H23 lung) [µM]	TGI (SW-620 colon) [µM]	TGI (BT-549 breast) [µM]	TGI (MDA-MB-435) [µM]	TGI (NCI/ADR-RES ovarian) [µM]	TGI (ACHN renal) [µM]	TGI (SF-539 CNS) [µM]	TGI (LOX IMVI melanoma) [µM]	TGI (NCI-H460 lung) [µM]	TGI (SNB-19 CNS) [µM]	TGI (PC-3 prostate) [µM]	TGI (NCI-H522 lung) [µM]	TGI (SNB-75 CNS) [µM]	TGI (SK-MEL-5 melanoma) [µM]	TGI (A549 NSCLC) [µM]	TGI (RXF 393 renal) [µM]	TGI (T-47D breast) [µM]
Cc1nc2ccccc2c(=O)n1-c1n[nH]c2ccccc12	> 100	> 100	> 100	> 100	> 100	> 100	> 100	> 100	> 100	> 100	> 100	> 100	> 100	> 100	> 100	> 100	> 100	> 100	> 100
OC(CC(CC(O)(C(F)(F)Cl)C(F)(F)Cl)=NNc1ccccc1)(C(F)(F)Cl)C(F)(F)Cl	> 10	5.93	7.31	> 10	5.69	> 10	8.62	9.12	8.75	6.91	7.85	> 10	4.7	> 10	7.69	3.45	> 10	6.82	9.42
Cn1c(NN)nc(-c2ccc([N+](=O)[O-])cc2)c(C#N)c1=O	43.8	32.9	26.2	25.2	25.5	32.8	> 100	24.7	–	35.2	36.4	26.3	43.5	29.9	34.7	17.3	43.4	28	30.9
COc1ccc(OC)c([N+](=O)[O-])c1-c1nc2sccn2c1/C=N/N=C(N)N	> 100	92.6	> 100	> 100	> 100	> 100	> 100	> 100	> 100	> 100	> 100	> 100	> 100	> 100	–	> 100	> 100	> 100	> 100
O=S(=O)(C(=Ic1ccccc1)S(=O)(=O)C(F)(F)C(F)(F)C(F)(F)C(F)(F)F)C(F)(F)C(F)(F)C(F)(F)C(F)(F)F	21.9	56.9	39.7	20.5	28.5	36.8	59.8	19.3	28.8	28	32.2	28.5	31.6	6.09	28.5	27.5	34.3	–	32.5
Cc1c(/C=N/NC(=S)Nc2cccc(Cl)c2)c(=O)n(-c2ccccc2)n1C	> 100	33.6	82.3	> 100	75.1	> 100	33.8	37.5	33	> 100	21.8	37.1	> 100	–	28.3	> 100	–	29.5	> 100
COc1ccc(N)c(C(O)CCNC(C)=O)c1 (stereo not drawn)	> 100	> 100	> 100	> 100	> 100	> 100	> 100	> 100	> 100	> 100	> 100	> 100	> 100	> 100	> 100	> 100	> 100	> 100	> 100
COC(=O)c1ccc(Oc2nc3ccccc3nc2-c2cccs2)cc1	> 100	63.3	74.5	> 100	> 100	> 100	> 100	> 100	> 100	> 100	> 100	86.1	> 100	> 100	26	> 100	76.9	> 100	> 100
c1cc(-c2csc(-c3ccsc3)c2)cs1	> 100	> 100	> 100	> 100	> 100	> 100	> 100	> 100	> 100	> 100	> 100	> 100	> 100	–	> 100	> 100	> 100	> 100	> 100
CC1=C(C(=O)N[C@@H](Cc2ccccc2)C(=O)O)N2C(=O)[C@@H](NC(=O)[C@@H](N)CC(C)C)[C@H]2SC1	> 100	> 100	–	> 100	> 100	> 100	> 100	> 100	> 100	> 100	> 100	> 100	> 100	> 100	> 100	> 100	> 100	> 100	> 100
O=C1c2cccc3cccc(c23)C(=O)N1CCCNCCCCNCCCN1C(=O)c2cccc3cccc(c23)C1=O	0.219	0.216	0.866	3.54	3.02	1.28	32.3	6.47	1.57	0.255	–	4.35	1.05	0.0803	1.01	1.93	0.833	0.698	4.32
Cc1cccc(-n2c(C)nc3ccc(NC4OC(CO)C(O)C(O)C4O)cc3c2=O)c1 (stereo not drawn)	> 100	> 100	> 100	> 100	> 100	> 100	> 100	> 100	–	> 100	> 100	> 100	> 100	> 100	> 100	> 100	–	> 100	> 100
CN1CCC(CNC(=O)CCCCCCCCC(=O)NCC2(c3ccccc3)CCN(C)CC2)(c2ccccc2)CC1	> 100	> 100	–	> 100	> 100	> 100	> 100	> 100	48.8	> 100	> 100	> 100	> 100	> 100	> 100	> 100	> 100	> 100	> 100
N#Cc1nc(C2CC2)oc1N	> 100	> 100	> 100	> 100	> 100	> 100	> 100	> 100	> 100	> 100	–	> 100	> 100	> 100	> 100	–	> 100	> 100	> 100
COC(=O)c1ccccc1/C=C1/Cc2cccc(C)c2C1=O	> 100	> 100	> 100	> 100	> 100	> 100	> 100	> 100	> 100	> 100	> 100	–	> 100	> 100	> 100	> 100	> 100	> 100	> 100
CO[C@H]1O[C@@H]2CO[C@@H](c3ccccc3)O[C@H]2[C@@H]2CC=CCC[C@]12O	> 100	18.2	> 100	> 100	69	> 100	> 100	> 100	–	> 100	> 100	> 100	> 100	31	> 100	> 100	> 100	> 100	> 100
O=C(O)CN=C(C(=NCC(=O)O)c1ccccc1)c1ccccc1	> 100	> 100	> 100	> 100	> 100	> 100	> 100	> 100	–	> 100	> 100	> 100	> 100	> 100	> 100	–	> 100	> 100	> 100
CSc1c(C#N)c(O)n(-c2ccc(C)cc2)c(=O)c1C#N	> 100	> 100	> 100	> 100	> 100	> 100	> 100	–	> 100	> 100	> 100	> 100	> 100	> 100	> 100	> 100	> 100	> 100	> 100
CCOC(=O)N1CCN(c2c(C)nc(C)[nH]c2=O)CC1	> 100	> 100	> 100	> 100	> 100	> 100	> 100	> 100	> 100	> 100	> 100	> 100	> 100	> 100	–	> 100	> 100	> 100	> 100
O=c1[nH]c(=O)n(C2CC(O)C(CO)O2)cc1OCCc1ccccc1 (stereo not drawn)	> 100	> 100	> 100	–	> 100	> 100	> 100	> 100	–	> 100	–	> 100	> 100	> 100	> 100	> 100	> 100	> 100	> 100
